Experiment in all cases: NCI anticancer screen, dose series, 48 h
Assay [1] relates to ACHN renal.
The test system of assay [2] is MDA-N.
Assay [3] concerns SK-MEL-2 melanoma.
The test system of assay [4] is SK-MEL-5 melanoma.
Assay [5] deals with MCF7 breast.
For assay [6], the system named is HCT-15 colon.
The subject of assay [7] is MALME-3M melanoma.
Assay [8] has as its system LXFL 529 NSCLC.
For assay [9], the system named is DLD-1 colon.
Assay [10] relates to DMS 114 small cell lung.
In assay [11] the test system is SNB-78 CNS.

Our source for the TGI and GI50 values is PubChem BioAssay (NCI).

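How tested: cells in 96-well plates exposed to compound for 48 hours at five concentrations. Here, GI50 denotes the concentration required for 50% inhibition of growth. TGI marks complete inhibition of growth.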

Consider `COc1cc(/C=C2/Oc3c(OC)cccc3C2=O)ccc1O`, for which the TGI in [1], in [2], in assay [3], in assay [4], in [5] and in [6] was above 100 µM each time.

On to `CCN(CC)CCNc1ccc([N+](=O)[O-])c2sc3cc(Cl)ccc3c(=O)c12`, for which the GI50 was 21.8 µM in assay [3], 3.59 µM in assay [4], 3.28 µM in [5] and 2.7 µM in assay [6]. Moreover, the TGI in [3], in assay [4], in assay [5] and in [6] was above 100 µM in each case.

As for `NC(Cc1ccccc1CP(=O)(O)O)C(=O)O` (configuration not stated), the TGI in assay [1], in [2], in [3], in assay [4], in assay [5] and in assay [6] was above 100 µM throughout.

For `COc1ccc(CC[N+]2(C)COc3cc4oc(=O)cc(C)c4cc3C2)cc1OC` (configuration not stated), the TGI in assay [1], in [2], in assay [3], in assay [4], in [5] and in assay [7] was above 100 µM each time. In addition, the TGI in assay [6] was above 100 µM.

Consider `C(=C\c1c2oc(-c3ccccc3)cc(-c3ccccc3)c-2c2ccccc12)/C=C1\c2ccccc2-c2c(-c3ccccc3)cc(-c3ccccc3)[o+]c21`, for which the TGI in assay [8], in assay [1], in assay [3], in [4], in assay [9] and in assay [10] was above 100 µM each time. The TGI in [7], in assay [6] and in [11] was above 100 µM each time.

For the compound `Cc1ccc(NCCN(C)C)c2c(=O)c3cc(O)ccc3sc12`, the TGI turned out to be 21.7 µM in [8]; 7.31 µM in [1]; 4.58 µM in [2]; 35.7 µM in assay [3]; 9.88 µM in assay [4]; 1.59 µM in [5]. The TGI was 19.9 µM in [9]; 28 µM in [10]; 11.2 µM in [7]; 9.99 µM in assay [6]; 33.7 µM in assay [11].

On to `Cc1ncc(CSC(=N)N)n1Cc1ccccc1`, for which the TGI in assay [1], in assay [2], in [3], in [4], in [5] and in assay [7] was above 100 µM each time. The TGI in assay [6] is above 100 µM.

On to `CCOC(=O)c1csc(NC(=O)C(C)N2CCOCC2)n1` (configuration not stated), for which the TGI in assay [1], in assay [2], in assay [3], in assay [4], in assay [5] and in [7] was above 100 µM in each case. Besides, the TGI in [6] was above 100 µM.

On to `O=S(=O)(O)c1cc(O)c(N=Nc2ccc3ccccc3c2O)c2ccccc12`, for which the TGI is above 100 µM in assay [1]; above 100 µM in [2]; above 100 µM in assay [3]; 25.2 µM in assay [4]; 9.66 µM in assay [7]; above 100 µM in [6].

`c1cncc([O][Ge]([O]c2cccnc2)([O]c2cccnc2)[O]c2cccnc2)c1`: the GI50 in assay [3], in assay [4], in [9], in assay [7], in [6] and in [11] was above 100 µM throughout. The TGI in [3], in assay [4], in assay [9], in [7], in assay [6] and in [11] was above 100 µM each time.

With `CC(C)=CC(=O)c1c(C(=O)O)nc2ccccc2[n+]1[O-]`, the TGI in assay [8], in assay [1], in assay [3], in [4], in [9] and in assay [10] was above 100 µM each time. The TGI in assay [6] and in assay [11] was above 100 µM in each case.

With `CC(C)=CCC/C(C)=C/C=C/C(C)=C/C1C[C@@]2(C(O)O1)[C@H](CCCO)/C(=C(/C)C=O)CC[C@]2(C)O` (some centres not stated), the TGI was found to be 25.2 µM in [1]; 34.6 µM in assay [3]; 44.4 µM in assay [9]; 27.4 µM in assay [10]; 22.6 µM in assay [7]; 31 µM in [6]. Further, the TGI in [11] came out at 42 µM.

As for `CC(=O)[C@]1(O)Cc2c(O)c3c(c(O)c2[C@@H](OC2CC(N)C(O)C(C)O2)C1)C(=O)c1c(OCc2ccccc2)cccc1C3=O` (some centres not stated), the TGI in assay [8] was found to be 2.38 µM; in [1], 4.91 µM; in assay [2], 2.98 µM; in assay [3], 58.4 µM; in [4] it was 5.84 µM; in assay [10] it was 2.55 µM. Also, the results for the TGI in [7], in [6] and in assay [11] were 20.1 µM, 2.75 µM and 36.1 µM, respectively.

Turning to `O=C(O)/C=C/c1ccncc1`, the TGI in [8], in [1], in assay [3], in assay [4], in [9] and in [10] was above 100 µM in each case. In addition, the TGI in assay [7], in [6] and in assay [11] was above 100 µM throughout.

With `COc1cc2c(cc1OCCCOc1ccc(-c3cc4ccccc4c4ccccc34)cc1)N=C[C@@H]1CCCN1C2=O`, the GI50 was 1.07 µM in [1]; 0.0467 µM in assay [3]; 1.24 µM in assay [4]; 0.172 µM in [5]; 1.4 µM in [7]; 0.896 µM in [6]. The TGI in assay [1] was 2.3 µM; in [3], 0.521 µM; in assay [4], 2.49 µM; in [5], 0.971 µM; in assay [7], 2.74 µM; in [6], 2.26 µM.

As to `CC1(Cl)CC(C)(/C=C/Cl)C(Cl)CC1Cl` (configuration not stated), the TGI was 28.3 µM in assay [8]; 27.8 µM in assay [1]; 26.3 µM in assay [3]; 30.2 µM in assay [4]; 35.7 µM in [9]; 29.6 µM in assay [7]. The TGI came out at 27.3 µM in [6] and 46.8 µM in [11].

For the compound `C[n+]1c(-c2ccc(/C=N/NC(=O)C(=O)N/N=C/c3ccc(-c4cn5ccccc5[n+]4C)cc3)cc2)cn2ccccc21`, the TGI in assay [1], in assay [2], in assay [3], in [4], in [5] and in assay [7] was above 100 µM throughout. Further, the TGI in assay [6] was above 100 µM.

As for `Cc1ccc(NC(=O)C(=O)Cc2cccc[n+]2[O-])cc1C`, the TGI in assay [8], in [1], in assay [3], in assay [4], in [9] and in assay [10] was above 100 µM in each case. Also, the TGI in [7], in assay [6] and in [11] was above 100 µM each time.

As for `C/C(=N\NC(=S)N1CCOCC1)c1nc2ncccc2[nH]1`, the TGI is above 100 µM in [1]; above 100 µM in assay [2]; 69.4 µM in [3]; above 100 µM in assay [4]; 80.4 µM in assay [5]; above 100 µM in assay [7]. For the same compound, the TGI in assay [6] was above 100 µM.

In the case of `CC1CCCN1CCCOC(=O)c1ccc(OC2C=CCCC2)cc1` (configuration not stated), the TGI in assay [1] is above 100 µM; in assay [2], above 100 µM; in [3], above 100 µM; in assay [4], 35.2 µM; in assay [5], 49.6 µM; in assay [7] it was 34.4 µM. The TGI in assay [6] amounted to 53 µM.
